Source: patent US4981799A, “Acylamino acid racemase, production and use thereof” (priority 1987, dated 1991)

Columns and labels:
acylamino acid racemase [1] = assay: Influences of metal ions on enzyme activities; assay type: biochemical, Streptomyces sp. Y-53; details: for Relative enzyme activity, Additive Concentration 1 mM / Relative enzyme activity, Additive Concentration 10 mM: no additives taken as 100, cobalt chloride excluded; for Relative enzyme activity, Additive Concentration 1 mM: final concentration 1 mM; for Relative enzyme activity, Additive Concentration 10 mM: final concentration 10 mM
Method: Enzyme activities are determined by means of a mixed reaction system comprising 50 μl of a solution of the enzyme, 40 μl of a solution of the substrate, 10 μl of an L-aminoacylase solution and 400 μl of a 50 mM Tris-HCl buffer (pH 7.5 ). As the enzyme solution, a solution prepared by dissolving an acylamino acid racemase standard sample in a Tris-HCl buffer (pH 7.5 ) to 1 to 0.2 unit/ml was used; as the L-aminoacylase solution, a solution prepared by dissolving an L-aminoacylase standard sample (a commercially available product such as that produced by Sigma Co. may be used, but the L-aminoacylase extracted and purified from Y-53 strain was used in the present invention) in a Tris-HCl buffer (pH 7.5) to 40 to 8 units/ml.
The above solutions are mixed together by the sequential addition of the Tris-HCl buffer, substrate solution, L-aminoacylase solution and enzyme solution in this order, and reaction is initiated at 30° C. simultaneously with the addition of the enzyme solution.
For the determination of enzyme activities, the amount of methionine produced in the reaction system is determined by high performance liquid chromatography, and the enzyme activity corresponding to the production of 1 μmol/min. methionine is expressed as 1 unit. When a ymM concentration of methionine has been produced in the reaction system during a reaction time of x minutes, the activity (αunit) of the enzyme in 50 μl solution is calculated by the following equation: [formula]
In Table 4, the enzyme activities are presented in relative activities on the basis of the values obtained in the case of no additives as taken as 100.

acylamino acid racemase [2] = assay: Substrate specificity of acylamino acid racemase (enzyme activity determination coupled with aminoacylase); assay type: biochemical, Streptomyces sp. Y-53; details: amount of produced methionine taken as 100, free amino acids checked by amino acid oxidase and HPLC; for Relative Activity (D-form substrate): L-aminoacylase coupled; for Relative Activity (L-form substrate): D-aminoacylase of Y-53 strain coupled
Method: Note that the relative activities in Table 3, where N^α -acylamino acids were used as substrates, were determined by the method of enzyme activity determination described in the term .circle.3 , with the values representing the found amount (mM) of the produced α-amino acids corresponding to respective substrates as calculated on the basis of the amount of produced methionine taken as 100. When the substrate was an L-N^α -acylamino acid, D-aminoacylase as produced by Y-53 strain was used in place of L-aminoacylase.

[3] = concentration not singled out (1 mM and 10 mM examined)

Relative Activity (D-form substrate) (acylamino acid racemase [2])	SMILES	Relative enzyme activity, Additive Concentration 1 mM (acylamino acid racemase [1])	Relative enzyme activity, Additive Concentration 10 mM (acylamino acid racemase [1])	further results
–	O.O.O.O.O.O.O.O.O.O.O.O.O.O.O.O.O=S(=O)([O-])[O-].O=S(=O)([O-])[O-].O=S(=O)([O-])[O-].[Al+3].[Al+3] [Al2 (SO4)3 .16H2 O]	79	0	Effect on enzyme activity (in words) (acylamino acid racemase [1]; at 10 mM): inhibit the enzyme activity
–	O.O.[Ba+2].[Cl-].[Cl-] [BaCl2 .2H2 O]	85	120	–
–	[Ca+2].[Cl-].[Cl-] [CaCl2]	95	100	–
–	O.O.O.O.O.O.[Cl-].[Cl-].[Co+2] [CoCl2 .6H2 O]	–	140	Effect on enzyme activity (in words) (acylamino acid racemase [1]; at 10 mM): hardly activate the enzyme; Effect on enzyme activity (in words) (acylamino acid racemase [1]; low concentrations (around 1 mM)): noticeable activating effect
–	O.O.O.O.O.O.[Cl][Cr]([Cl])[Cl] [CrCl3 .6H2 O]	96	100	–
–	O.O.O.O.O.O=S(=O)([O-])[O-].[Cu+2] [CuSO4 .5H2 O]	0	0	Effect on enzyme activity (in words) (acylamino acid racemase [1]; [3]): noticeable inhibitory effect
0	C[C@@H](N)C(=O)O [D-alanine]	–	–	–
0	CC(C)C[C@@H](N)C(=O)O [D-leucine]	–	–	–
0	CSCC[C@@H](N)C(=O)O [D-methionine]	–	–	–
0	N[C@H](Cc1ccccc1)C(=O)O [D-phenylalanine]	–	–	–
0	N[C@H](Cc1c[nH]c2ccccc12)C(=O)O [D-tryptophan]	–	–	–
0	CC(C)[C@@H](N)C(=O)O [D-valine]	–	–	–
–	O=C(O)CN(CCN(CC(=O)O)CC(=O)O)CC(=O)O [EDTA, reference compound]	68	0	Effect on enzyme activity (in words) (acylamino acid racemase [1]; at 10 mM): noticeable inhibitory effect
–	O.O.O.O.O.O.O.O=S(=O)([O-])[O-].[Fe+2] [FeSO4 .7H2 O]	100	560	–
–	[Cl-].[K+] [KCl]	110	130	–
–	C[C@H](N)C(=O)O [L-alanine]	–	–	Relative Activity (L-form substrate) (acylamino acid racemase [2]): 0
–	CC(C)C[C@H](N)C(=O)O [L-leucine]	–	–	Relative Activity (L-form substrate) (acylamino acid racemase [2]): 0
–	CSCC[C@H](N)C(=O)O [L-methionine]	–	–	Relative Activity (L-form substrate) (acylamino acid racemase [2]): 0
–	N[C@@H](Cc1ccccc1)C(=O)O [L-phenylalanine]	–	–	Relative Activity (L-form substrate) (acylamino acid racemase [2]): 0
–	N[C@@H](Cc1c[nH]c2ccccc12)C(=O)O [L-tryptophan]	–	–	Relative Activity (L-form substrate) (acylamino acid racemase [2]): 0
–	CC(C)[C@H](N)C(=O)O [L-valine]	–	–	Relative Activity (L-form substrate) (acylamino acid racemase [2]): 0
–	[Cl-].[Li+] [LiCl]	100	120	–
–	O.O.O.O.O.O.O.O=S(=O)([O-])[O-].[Mg+2] [MgSO4 .7H2 O]	890	–	Effect on enzyme activity (in words) (acylamino acid racemase [1]; [3]): the activating effect is greater at 10 mM than at 1 mM
–	O.O.O.O.O.O.O.O=S(=O)([O-])[O-].[Mn+2] [MnSO4 .7H2 O]	780	–	–
33	CC(=O)N[C@H](C)C(=O)O [N-acetyl-D-alanine]	–	–	–

Relative Activity (D-form substrate) (acylamino acid racemase [2])	SMILES	Relative enzyme activity, Additive Concentration 1 mM (acylamino acid racemase [1])	Relative enzyme activity, Additive Concentration 10 mM (acylamino acid racemase [1])	further results
33	CC[C@H](C)[C@@H](NC(C)=O)C(=O)O [N-acetyl-D-allo-isoleucine]	–	–	–
37	CC(=O)N[C@H](CC(C)C)C(=O)O [N-acetyl-D-leucine]	–	–	–
100	CSCC[C@@H](NC(C)=O)C(=O)O [N-acetyl-D-methionine]	–	–	–
64	CC(=O)N[C@H](Cc1ccccc1)C(=O)O [N-acetyl-D-phenylalanine]	–	–	–
10	CC(=O)N[C@H](Cc1c[nH]c2ccccc12)C(=O)O [N-acetyl-D-tryptophan]	–	–	–
35	CC(=O)N[C@@H](C(=O)O)C(C)C [N-acetyl-D-valine]	–	–	–
–	CC(=O)N[C@@H](C)C(=O)O [N-acetyl-L-alanine]	–	–	Relative Activity (L-form substrate) (acylamino acid racemase [2]): 21
–	CC(=O)N[C@@H](CC(C)C)C(=O)O [N-acetyl-L-leucine]	–	–	Relative Activity (L-form substrate) (acylamino acid racemase [2]): 74
–	CSCC[C@H](NC(C)=O)C(=O)O [N-acetyl-L-methionine]	–	–	Relative Activity (L-form substrate) (acylamino acid racemase [2]): 100
–	CC(=O)N[C@@H](Cc1ccccc1)C(=O)O [N-acetyl-L-phenylalanine]	–	–	Relative Activity (L-form substrate) (acylamino acid racemase [2]): 84
–	CC(=O)N[C@@H](Cc1c[nH]c2ccccc12)C(=O)O [N-acetyl-L-tryptophan]	–	–	Relative Activity (L-form substrate) (acylamino acid racemase [2]): 8
–	CC(=O)N[C@H](C(=O)O)C(C)C [N-acetyl-L-valine]	–	–	Relative Activity (L-form substrate) (acylamino acid racemase [2]): 19
14	C[C@@H](NC(=O)c1ccccc1)C(=O)O [N-benzoyl-D-alanine]	–	–	–
80	CC(C)[C@@H](NC(=O)CCl)C(=O)O [N-chloroacetyl-D-valine]	–	–	–
–	O=C(CCl)N[C@@H](Cc1ccccc1)C(=O)O [N-chloroacetyl-L-phenylalanine]	–	–	Relative Activity (L-form substrate) (acylamino acid racemase [2]): 112
–	CC(C)[C@H](NC(=O)CCl)C(=O)O [N-chloroacetyl-L-valine]	–	–	Relative Activity (L-form substrate) (acylamino acid racemase [2]): 105
40	CSCC[C@@H](NC=O)C(=O)O [N-formyl-D-methionine]	–	–	–
–	CSCC[C@H](NC=O)C(=O)O [N-formyl-L-methionine]	–	–	Relative Activity (L-form substrate) (acylamino acid racemase [2]): 63
–	[Cl-].[Na+] [NaCl]	100	130	–
–	O.O.[Na+].[Na+].[O]=[Mo](=[O])([O-])[O-] [NaMoO4 .2H2 O]	96	0	Effect on enzyme activity (in words) (acylamino acid racemase [1]; at 10 mM): inhibit the enzyme activity
–	O.O.O.O.O.O.O=S(=O)([O-])[O-].[Ni+2] [NiSO4 .6H2 O]	460	0	–
–	[Cl][Pb][Cl] [PbCl2]	78	100	–
–	O=S(=O)([O-])[O-].[Sn+2] [SnSO4]	92	100	–
–	O.O.O.O.O.O.[Cl-].[Cl-].[Sr+2] [SrCl2 .6H2 O]	94	110	–
–	O.O.O.O.O.O.O.O=S(=O)([O-])[O-].[Zn+2] [ZnSO4 .7H2 O]	810	80	–

SMILES	Relative Activity (D-form substrate) (acylamino acid racemase [2])	Relative enzyme activity, Additive Concentration 1 mM (acylamino acid racemase [1])	Relative enzyme activity, Additive Concentration 10 mM (acylamino acid racemase [1])	further results
O=C(CCl)N[C@H](Cc1ccccc1)C(=O)O [N-chloroacetyl-D-phenylalanine]	90	–	–	–
